The subject of assay [1] is Phosphorylation of ERK1/2 in AsPC-1 cells. In words: Phospho-ERK1/2 MSD Assay. Type of assay: cell-based, human. The settings on record: Homo sapiens, ASPC1, 2 h, read-out: 2 h p-ERK (AsPC-1 cells), IC50. The method in brief:
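Read-out: MSD electrochemiluminescent detection of phosphorylated ERK1/2 in whole-cell lysates, fitted to a 4-parameter logistic curve for IC50. Prior to lysis, AsPC-1 cells (25,000 per well) received a 2 h compound dose-response at 37 °C.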

A further assay deals with AsPC-1 cells. In words: AsPC-1 CTG Assay (CellTiter-Glo cell viability). Type of assay: cell-based, human. The settings on record: Homo sapiens, ASPC1, 72 h, AsPC-1, 72 h; first value of the cell; read-out: G12D/C/V Cell Proliferation CTG (72 h) AsPC-1. The method in brief:
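IC50 values derive from 4-parameter logistic fits of CellTiter-Glo luminescence, expressed relative to DMSO. Compound dilution series were applied to overnight-seeded AsPC-1 or SW620 cells (RPMI 1640, 10% FBS) for 72 h at 37 °C, 5% CO2.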
(In general: In ATP-based viability assays light output follows the ATP content of the culture.)

Assay [2] addresses GDP-bound KRAS protein (aa 1-169), containing both G12D and C118A amino acid substitutions (Homo sapiens (Human), UniProt P01116, C118A/G12D). In words: KRAS G12D Coupled Nucleotide Exchange Assay. The class given is biochemical. Particulars: read-out: KRAS G12D Coupled Exchange IC50.
In assay [3] the target is His-tagged KRAS G12D protein (Homo sapiens (Human), UniProt P01116, G12D). The assay can be described thus: KRAS G12D TR-FRET Assay. Particulars: read-out: KRAS G12D Binding IC50. Type of assay: binding. The method in brief:
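Each incubation ran at room temperature: enzyme with compound for 30 minutes, peptide for one hour, and detection reagents (0.4 nM europium anti-6×His, 5 nM streptavidin-d2) for one hour more. Protein and peptide stocks were each diluted to 20 nM before addition.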
On the technique in general: TR-FRET usually uses a lanthanide donor and a delayed reading to cut background.

Sequence of His-tagged KRAS G12D protein (P01116 other isoform, or with tags, fused parts or gaps G12D): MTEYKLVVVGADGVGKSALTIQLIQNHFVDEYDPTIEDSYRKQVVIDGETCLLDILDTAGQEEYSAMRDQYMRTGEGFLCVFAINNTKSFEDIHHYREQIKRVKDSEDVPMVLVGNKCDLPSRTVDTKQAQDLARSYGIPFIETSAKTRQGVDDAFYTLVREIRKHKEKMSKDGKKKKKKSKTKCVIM
Sequence of GDP-bound KRAS protein (aa 1-169), containing both G12D and C118A amino acid substitutions (P01116 other isoform, or with tags, fused parts or gaps G12D/C118A): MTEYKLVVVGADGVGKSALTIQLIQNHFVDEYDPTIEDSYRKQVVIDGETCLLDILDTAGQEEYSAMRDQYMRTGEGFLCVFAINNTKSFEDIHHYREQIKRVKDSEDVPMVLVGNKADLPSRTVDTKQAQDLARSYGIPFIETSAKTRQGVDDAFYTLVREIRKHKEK

Turning to `Cc1cc2[nH]ncc2c2c1CCC[C@@H](O)CC[C@@H]1CCCN(C1)c1nc(OC[C@@]34CCCN3C[C@H](F)C4)nc3c(F)c-2ncc13` [Example 237, (14R,17S)-30-Fluoro-24-(((2R,7aS)-2-fluorotetrahydro-1H-pyrrolo[1,2-a]pyrrol-7a(5H)-yl)methoxy)-9-methyl-5,6,21,23,25,29-hexaazahexacyclo[24.3.1.1˜17,21˜.0˜2,10˜.0˜3,7˜.0˜22,27˜]hentriaconta-1(30),2,4,7,9,22,24,26,28-nonaen-14-ol], the IC50 in assay [1] was 0.279 µM; in the assay with AsPC-1 cells, 5 µM; in assay [2], 0.010 µM; in assay [3] it was 0.019 µM.

As for `Cc1cc2[nH]ncc2c2c1CCC[C@H](O)CC[C@H]1CCCN(C1)c1nc(OC[C@@]34CCCN3C[C@H](F)C4)nc3c(F)c-2ncc13` [Example 238, (14S,17R)-30-fluoro-24-(((2R,7aS)-2-fluorotetrahydro-1H-pyrrolo[1,2-a]pyrrol-7a(5H)-yl)methoxy)-9-methyl-5,6,21,23,25,29-hexaazahexacyclo[24.3.1.1˜17,21˜.0˜2,10˜.0˜3,7˜.0˜22,27˜]hentriaconta-1(30),2,4,7,9,22,24,26,28-nonaen-14-ol], the IC50 in assay [1] is 0.861 µM; in the assay on AsPC-1 cells, 5 µM; in assay [2], 0.024 µM; in assay [3], 0.045 µM.

As to `Fc1cc2[nH]ncc2c2c1CCCCOC[C@@H]1CCCCN(C1)c1nc(OC[C@@]34CCCN3C[C@H](F)C4)nc3c(F)c-2ncc13` [Example 239, (26R)-18,32-difluoro-4-(((2R,7aS)-2-fluorotetrahydro-1H-pyrrolo[1,2-a]pyrrol-7a(5H)-yl)methoxy)-24-oxa-1,3,5,9,14,15-hexaazahexacyclo[24.4.1.1~6, 10~.0~2,7~.0~11,19~.0~12,16~]dotriaconta-2,4,6(32),7,9,11,13,16,18-nonaene], the IC50 turned out to be 0.0829 µM in assay [1], 0.527 µM in the assay on AsPC-1 cells, 0.005 µM in assay [2] and 0.006 µM in assay [3].

`Fc1c2ncc3c(nc(OC[C@@]45CCCN4C[C@H](F)C5)nc13)N1CCC[C@H](C1)c1noc(n1)CCCc1c(Cl)cc3[nH]ncc3c1-2` [Example 247, (18R)-9-chloro-31-fluoro-25-(((2R,7aS)-2-fluorotetrahydro-1H-pyrrolo[1,2-a]pyrrol-7a(5H)-yl)methoxy)-15-oxa-5,6,16,22,24,26,30,33-octaazaheptacyclo[25.3.1.1~14,17~.1~18,22~.0~2,10~.0~3,7~.0~23,28~]tritriaconta-1(31),2,4,7,9,14(33),16,23,25,27,29-undecaene]: the IC50 in assay [1] was 0.0312 µM; with AsPC-1 cells, 0.446 µM; in assay [2] it was 0.005 µM; in assay [3] it was 0.009 µM.

Regarding `Cc1cc2[nH]ncc2c2c1C[C@@H](C)CCOC[C@@H]1CCCN(C1)c1nc(OC[C@@]34CCCN3C[C@H](F)C4)nc3c(F)c-2ncc13` [Example 250, (12R,17R)-30-fluoro-24-(((2R,7aS)-2-fluorotetrahydro-1H-pyrrolo[1,2-a]pyrrol-7a(5H)-yl)methoxy)-9,12-dimethyl-15-oxa-5,6,21,23,25,29-hexaazahexacyclo[24.3.1.1~17,21~.0~2,10~.0~3,7~.0~22,27~]hentriaconta-1(30),2,4,7,9,22,24,26,28-nonaene], the IC50 in assay [1] was 0.128 µM; in the assay on AsPC-1 cells, 1.06 µM; in assay [2], 0.006 µM; in assay [3], 0.013 µM.

Turning to `C[C@@H]1CCOC[C@H]2CN(CCO2)c2nc(OC[C@@]34CCCN3C[C@H](F)C4)nc3c(F)c(ncc23)-c2c(c(Cl)cc3[nH]ncc23)C1` [Example 253, (12S,17R)-9-chloro-30-fluoro-24-(((2R,7aS)-2-fluorotetrahydro-1H-pyrrolo[1,2-a]pyrrol-7a(5H)-yl)methoxy)-12-methyl-15,18-dioxa-5,6,21,23,25,29-hexaazahexacyclo[24.3.1.1~17,21~.0~2,10~.0~3,7~.0~22,27~]hentriaconta-1(30),2,4,7,9,22,24,26,28-nonaene], the IC50 in assay [1] worked out at 0.0678 µM; in the assay with AsPC-1 cells, 1.2 µM; in assay [2], 0.006 µM; in assay [3], 0.009 µM.

On to `Fc1c2ncc3c(nc(OC[C@@]45CCCN4C[C@H](F)C5)nc13)N1CC[C@@H](COCCCCc3c(Cl)cc4[nH]ncc4c3-2)C1` [Example 254, (17R)-9-chloro-29-fluoro-23-(((2R,7aS)-2-fluorotetrahydro-1H-pyrrolo[1,2-a]pyrrol-7a(5H)-yl)methoxy)-15-oxa-5,6,20,22,24,28-hexaazahexacyclo[23.3.1.1~17,20~.0~2,10~.0~3,7~.0~21,26~]triaconta-1(29),2,4,7,9,21,23,25,27-nonaene], for which the IC50 in assay [1] turned out to be 0.545 µM; in the assay on AsPC-1 cells, 3.97 µM; in assay [2], 0.012 µM; in assay [3] it was 0.019 µM.

On to `O=C1N[C@@H]2CCCCN(C2)c2nc(OC[C@@]34CCCN3C[C@H](F)C4)nc3c(F)c(ncc23)-c2c(c(Cl)cc3[nH]ncc23)CCCO1` [Example 256, (26R)-18-chloro-32-fluoro-4-(((2R,7aS)-2-fluorotetrahydro-1H-pyrrolo[1,2-a]pyrrol-7a(5H)-yl)methoxy)-23-oxa-1,3,5,9,14,15,25-heptaazahexacyclo[24.4.1.1~6, 10~.0~2,7~.0~11,19~.0~12,16~]dotriaconta-2,4,6(32),7,9,11,13,16,18-nonaen-24-one], for which the IC50 was 0.0094 µM in assay [1], 0.229 µM in the assay on AsPC-1 cells, 0.005 µM in assay [2] and 0.004 µM in assay [3].

As to `Fc1c2ncc3c(nc(OC[C@@]45CCCN4C[C@H](F)C5)nc13)N1CCOCC(C1)Cn1ncc(n1)/C=C\c1c(Cl)cc3[nH]ncc3c1-2` (stereo partly drawn) [Example 258, (20Z)-18-chloro-34-fluoro-4-(((2R,7aS)-2-fluorotetrahydro-1H-pyrrolo[1,2-a]pyrrol-7a(5H)-yl)methoxy)-29-oxa-1,3,5,9,14,15,24,25,33-nonaazaheptacyclo[25.4.1.1~6,10~.1~22,25~.0~2,7~.0~11,19~.0~12,16~]tetratriaconta-2,4,6,8,10(34),11,13,16,18,20,22(33),23-dodecaene], the IC50 in assay [1] came out at 0.0829 µM; in the assay on AsPC-1 cells it was 0.996 µM; in assay [2], 0.006 µM; in assay [3] it was 0.013 µM.

Regarding `CN(C)CC1(COc2nc3c4cnc(c(F)c4n2)-c2c(c(Cl)cc4[nH]ncc24)CCCCC(=O)N2CC[C@@H]4CCN3C[C@@H]42)CC1` [Example 268, (28S,32R)-18-chloro-4-((1-((dimethylamino)methyl)cyclopropyl)methoxy)-33-fluoro-1,3,5,9,14,15,25-heptaazaheptacyclo[23.5.2.1~6,10~.0~2,7~.0~11,19~.0~12,16~.0~28,32~]tritriaconta-2,4,6,8,10(33),11,13,16,18-nonaen-24-one], the IC50 in assay [1] stood at 0.246 µM; in the assay on AsPC-1 cells, 1.35 µM; in assay [2] it was 0.004 µM; in assay [3], 0.007 µM.

Regarding `O=C1CCCCc2c(Cl)cc3[nH]ncc3c2-c2ncc3c(nc(OC[C@@]45CCCN4C[C@H](F)C5)nc3c2F)N2CC3CCN1C(C3)C2` (some centres unmarked) [Example 269], the IC50 in assay [1] was determined as 0.25 µM; in the assay with AsPC-1 cells it was 0.606 µM; in assay [2] it was 0.011 µM; in assay [3], 0.016 µM.

As to `O=C1COCCCc2c(Cl)cc3[nH]ncc3c2-c2ncc3c(nc(OC[C@@]45CCCN4C[C@H](F)C5)nc3c2F)N2CCCC[C@H](C2)N1` [Example 272, (27R)-18-chloro-33-fluoro-4-(((2R,7aS)-2-fluorotetrahydro-1H-pyrrolo[1,2-a]pyrrol-7a(5H)-yl)methoxy)-23-oxa-1,3,5,9,14,15,26-heptaazahexacyclo[25.4.1.1~6,10~.0~2,7~.0~11,19~.0~12,16~]tritriaconta-2,4,6,8,10(33),11,13,16,18-nonaen-25-one], the IC50 in assay [1] was 0.25 µM; with AsPC-1 cells, 1.76 µM; in assay [2], 0.003 µM; in assay [3], 0.011 µM.

Consider `O=C1CCCCc2c(Cl)cc3[nH]ncc3c2-c2ncc3c(nc(OC[C@@]45CCCN4C[C@H](F)C5)nc3c2F)N2CCC[C@]3(C2)C[C@H](C3)N1` [Example 273, (1S,3R)-11-chloro-33-fluoro-25-(((2R,7aS)-2-fluorotetrahydro-1H-pyrrolo[1,2-a]pyrrol-7a(5H)-yl)methoxy)-4,14,15,20,24,26,28-heptaazaheptacyclo[26.3.1.1~1,3~.1~19,23~.0~10,18~.0~13,17~.0~22,27~]tetratriaconta-10,12,15,17,19(33),20,22,24,26-nonaen-5-one], for which the IC50 amounted to 1.1 µM in assay [1], 5 µM with AsPC-1 cells, 0.002 µM in assay [2] and 0.003 µM in assay [3].

As to `O=C1CCCc2c(Cl)cc3[nH]ncc3c2-c2ncc3c(nc(OC[C@@]45CCCN4C[C@H](F)C5)nc3c2F)N2CCCC3(CC(C3)N1)C2` [Example 274], the IC50 was determined as 1.78 µM in assay [1], 5 µM with AsPC-1 cells, 0.016 µM in assay [2] and 0.032 µM in assay [3].

Source of the values: patent US20240294551A1 (AMGEN INC., priority 2022, published 2024).
